Key:
[1] = test system: ventilatory pattern generator of the locust, Locusta migratoria; test: Hyperthermic failure and recovery of locust ventilatory motor pattern; format: in vivo; details: for thermotolerance of neural function (failure temperature, FIG. 7A): 1 μM KT5823, 1 μM Cantharidin, 40 μM 8-Bromo cGMP
Procedure: To determine if the thermoprotective consequences of PKG manipulations also apply to central circuitry and motor pattern generation, the thermotolerance of the ventilatory pattern generator was measured (Robertson, R. M. 2004) of the locust, Locusta migratoria. […] Ventilatory arrhythmias (Arr) in untreated animals prior to hyperthermic failure are rarely seen in preparations treated with the PKG inhibitor (FIG. 4.). At failure, temperature was returned to room temperature and time to recovery recorded. Pretreated controls recover after 180.2±42.4 sec whereas KT5823-pretreated animals recover after 62.3±13.4 sec. […] Once ventilatory pattern failure occurs during a temperature ramp, heating was terminated and the motor pattern was monitored until recovery.
Male locusts aged 4-6 weeks were dissected and pinned on a cork board; overlying tissue was removed exposing the metathoracic ganglion. Standard locust saline was superfused and heated at a rate of 5° C./2 min. until motor pattern failure, after which saline was allowed to return to room temperature. Ventilatory motor patterns were monitored using an EMG electrode on muscle 161 in the second abdominal segment. Pressure injection (32±13.5 nL, 10 psi, 150 ms) into the ventilatory neuropil was with a glass microelectrode filled with either 1 μM KT5823 in standard locust saline or locust saline alone (sham treatment) 10 min. (pretreated) before, or during (acutely treated; ˜3 min. before failure in controls) the temperature ramp.
FIGS. 7 to 8 illustate hyperthermic failure of locust ventilatory motor pattern generation. FIG. 8 illustrates sample traces of the ventilatory rhythm recorded from an abdominal expiratory muscle in a control locust. The ventilatory arrhythmias prior to failure should be noted. At failure, temperature was allowed to return to room temperature and time to recovery was recorded. The ventilatory motor pattern after recovery is at a lower frequency than just prior to failure because the temperature is lower. […] Significant differences were found across all groups (ANOVA F(9,105)=13.160, p<0.001). […] Here too significant differences were found across all groups (ANOVA […], p<0.001) N>5 for all treatments. […] Error bars represent SEM.

[2] = test system: ventilatory pattern generator of the locust, Locusta migratoria; test: as above; format: in vivo
[3] = test system: febrile seizures; details: intermittent treatment of febrile seizures; cited from earlier work

Question: With `Nc1nc2c(nc(Br)n2[C@@H]2O[C@@H]3COP(=O)(O)O[C@H]3[C@H]2O)c(=O)[nH]1` [8-Bromo cGMP, 8-bromo-guanosine 3′,5′-cyclic monophosphate] as the molecule, how does the “thermotolerance of neural function (failure temperature, FIG. 7A)” value (shortened to “thermotolerance of neural function”) [1] read?
Answer: did not increase the thermotolerance of the circuit

Question: What about the “effect on protective effects of heat shock preconditioning” value ([1]; 40 μM, HS animals (3 hr at 45° C.)) of the same molecule?
Answer: abolished the protective effects of heat shock preconditioning

Question: Which “thermotolerance in HS animals given 8-Bromo cGMP plus Cantharidin” value ([1]; 1 μM Cantharidin with 40 μM 8-Bromo cGMP, HS animals) does the source give for `CC12C(=O)OC(=O)C1(C)C1CCC2O1` (stereo not shown) [Cantharidin, Hexahydro-3a,7a-dimethyl-4,7-epoxyisobenzofuran-1,3-dione] here?
Answer: counteracted the effect of 8-Bromo cGMP in HS animals thereby inducing maximal thermotolerance

Question: And the “thermotolerance of neural function” value [1]?
Answer: increased the thermotolerance of neural function

Question: With `COC(=O)[C@@]1(OC)C[C@H]2O[C@]1(C)n1c3ccccc3c3c4c(c5c6ccccc6n2c5c31)C(=O)N(C)C4` [KT5823] as the molecule, how does the “thermotolerance of neural function” value [1] read?
Answer: increased the thermotolerance of neural function

Question: And the “acute effect of injection on ventilatory rhythm frequency, burst duration or duty cycle” value ([1]; 1 μM pressure injection, data not shown)?
Answer: no acute effect

Question: And the “preparations with arrhythmias before failure” value ([1]; during temperature ramp, controls 60%)?
Answer: 11%

Question: And the “thermal protection of the circuit, pretreated” value ([2]; 25 nL of 1 μM injected 10 minutes before increasing temperature)?
Answer: thermoprotection and rapid recovery of the circuit was observed

Question: What about the “thermal protection of the circuit, acutely treated” value ([2]; one 25 nL dose injected during temperature ramp 3 min. before failure) of the same molecule?
Answer: extremely rapid and equally pronounced thermal protection of the circuit was observed

Question: What about the “time to recovery of ventilatory motor pattern after failure” value ([2]; pretreated: 25 nL of 1 μM injected into ventilatory neuropil 10 min before temperature ramp, return to room temperature at failure) of the same molecule?
Answer: 62.3 ± 13.4 s

Question: Which “failure temperature compared with controls” value ([1]; PKA inhibitor, data not shown) does the source give for `Nc1ncnc2c1ncn2[C@@H]1O[C@@H]2COP(O)(=S)O[C@H]2[C@H]1O` (stereo partly shown) [RP-cAMP] here?
Answer: no significant differences

Question: What about the “recovery time compared with controls” value ([1]; PKA inhibitor, data not shown) of the same molecule?
Answer: no significant differences

Question: With `CN1C(=O)CN=C(c2ccccc2)c2cc(Cl)ccc21` [diazepam] as the molecule, how does the “reduction in risk per patient year” value [3] read?
Answer: 44%

Source: patent US7858579B2, “Thermoprotective compositions of pkg pathway inhibitors and method of use thereof” (priority 2005, dated 2010)
